In patent US20250011311A1, “AMIDO HETEROAROMATIC COMPOUNDS” (AstraZeneca AB, priority 2022, published 2025):

Experiments:
[1] = molecular target: recombinant 17bHSD13 (N2-K300) (Homo sapiens (Human), UniProt Q7Z5P4); test: In Vitro 17bHSD13 Enzyme Assay; type: biochemical; settings: 80 nM 17bHSD13, 0.5 mM NAD, 20 μM Estradiol, 2.5 h; estradiol to estrone by LC-MS/MS
Experimental: In Vitro 17bHSD13 Enzyme Assay
The enzyme reaction was initiated by addition, using CERTUS-FLEX dispenser (GYGER), of 20 μl of substrate solution containing NAD (SIGMA, N1511) and Estradiol (SIGMA, E8875). […] Final assay conditions were 80 nM of 17bHSD13, 0.5 mM of NAD, 20 μM Estradiol and various concentrations of compound in buffer (5 mM EDTA (TEKNOVA E0306), 0.01% DDM (AFFYMETRIX D310) in 50 mM Tris-Cl, pH 7.4).
(§1) SCIEX LC-MS/MS system: Sample was injected with CTC analytical injector, SHIMATZU LC pumps LC20 and analyzed on the SCIEX API 5000 LCMSMS system with the following settings. […] The mobile phases consist of A (water with 0.2% formic acid) and B (acetonitrile with 0.2% formic acid). The LC gradient profile is as follows: 50% B during 0 to 0.5 min, a linear increase to 100% B during 0.5 to 1 min, hold at 100% B during 1 to 1.6 min then back to 50% B from 1.6 to 2 min. […] Detection was performed on a API 5000 LC/MS/MS system with a triple quadrupole mass spectrometer, a TURBO V ion source, in multiple reaction monitoring (MRM) mode at positive polarity with APCI probe. […] The dwell times were 100 ms for each transition and a depolarization and collision energy of 100 and 40, respectively. Data from MS signals was using area under curve (AUC). Ratio=Estrone/(Estrone+Estradiol)
(§2) […] […] was used for curve fitting and calculation of IC50 values.
(§3) Compound effect was calculated with the formula below;
(§4) where X represents the effect in the presence of test compound, min is DMSO and max is the maximum inhibition of enzyme using a known inhibitor as control.

[2] = molecular target: recombinant 17bHSD4 (M1-N311) (Homo sapiens (Human), UniProt P51659); test: In Vitro 17bHSD4 Enzyme Assay; type: biochemical; settings: 40 nM 17bHSD4, 0.125 mM NAD, 15 μM Estradiol, 1.5 h; NADH fluorescence; read-out: 17HSD17b4 Enzyme assay IC50
Chain of recombinant 17bHSD4 (M1-N311) (P51659 1-311): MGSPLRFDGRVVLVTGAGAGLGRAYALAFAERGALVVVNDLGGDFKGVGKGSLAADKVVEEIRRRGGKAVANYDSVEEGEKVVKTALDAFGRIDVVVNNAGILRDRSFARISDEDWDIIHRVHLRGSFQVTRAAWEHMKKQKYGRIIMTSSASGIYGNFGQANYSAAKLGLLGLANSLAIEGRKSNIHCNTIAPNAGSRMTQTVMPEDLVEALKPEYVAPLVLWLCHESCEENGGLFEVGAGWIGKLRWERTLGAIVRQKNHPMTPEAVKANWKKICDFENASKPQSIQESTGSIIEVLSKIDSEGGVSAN
Experimental: In Vitro 17bHSD4 Enzyme Assay
10 concentration of compounds (0.2 μl) in DMSO was added to GREINER FLUOTRAC 200 384 well plate (781076) using ECHO dispensing (BECKMAN COULTER). 80 nl of 10 mM Estradiol (SIGMA, E8875) was added using Echo dispensing. The enzyme reaction was initiated by addition, using MULTIDROP COMBI dispensing (THERMO FISHER), of 40 μl of a mix containing recombinant 17bHSD4 (M1-N311) and NAD. Final assay conditions were 40 nM of 17bHSD4, 0.125 mM of NAD, 15 μM Estradiol and various concentrations of compound in buffer (5 mM EDTA (TEKNOVA E0306), 0.01% DDM (AFFYMETRIX D310) in 50 mM Tris-Cl, pH 7.4). After each addition plates were centrifuged for 1 min at 150×g (EPPENDORF, 5810R, A-4-81). NADH formation was measured by fluorescence intensity (FI) (Ex360/Em460) at time zero (to) and at 1.5 h (t1) in a PHERASTAR FSX (BMG LABTECH). FI for each sample was calculated as FI at t1 minus FI at t0.
as §2, §3, §4

[3] = molecular target: over expressed HSD17β13 in HEK293S cells (Homo sapiens (Human), UniProt Q7Z5P4); test: In Vitro 17bHSD13 Cell Assay; type: cell-based; settings: HEK293S cells over expressing HSD17β13; estradiol to estrone conversion, 18 h, LC-MS/MS; read-out: 17bHSD1713 Cell assay IC50
Chain of over expressed HSD17β13 in HEK293S cells (Q7Z5P4 20-300): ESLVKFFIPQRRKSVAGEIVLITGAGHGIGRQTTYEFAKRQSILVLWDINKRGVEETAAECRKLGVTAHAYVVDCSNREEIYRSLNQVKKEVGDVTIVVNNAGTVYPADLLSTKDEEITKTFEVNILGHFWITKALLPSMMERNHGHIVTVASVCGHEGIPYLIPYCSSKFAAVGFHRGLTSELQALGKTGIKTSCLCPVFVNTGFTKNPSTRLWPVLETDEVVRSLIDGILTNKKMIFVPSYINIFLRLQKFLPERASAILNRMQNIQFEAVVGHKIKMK
Experimental: In Vitro 17bHSD13 Cell Assay
Inhibition of 17bHSD13 was measured in a cell-based assay with over expressed HSD17β13 in HEK293S cells, measuring estradiol to estrone conversion by LCMS/MS.
Samples were analyzed using LC-MS/MS.
as §1, with “analysed” for “analyzed”
as §2, §3, §4

[4] = molecular target: over expressed HSD17β9 in HEK293S cells (Homo sapiens (Human), UniProt Q92781); test: In Vitro 17bHSD9 Cell Assay; type: cell-based; settings: HEK293S cells over expressing HSD17β9; retinol to retinal conversion, 18 h, LC-MS/MS; read-out: 17bHSD9 Cell assay IC50
Chain of over expressed HSD17β9 in HEK293S cells (Q92781 whole entry): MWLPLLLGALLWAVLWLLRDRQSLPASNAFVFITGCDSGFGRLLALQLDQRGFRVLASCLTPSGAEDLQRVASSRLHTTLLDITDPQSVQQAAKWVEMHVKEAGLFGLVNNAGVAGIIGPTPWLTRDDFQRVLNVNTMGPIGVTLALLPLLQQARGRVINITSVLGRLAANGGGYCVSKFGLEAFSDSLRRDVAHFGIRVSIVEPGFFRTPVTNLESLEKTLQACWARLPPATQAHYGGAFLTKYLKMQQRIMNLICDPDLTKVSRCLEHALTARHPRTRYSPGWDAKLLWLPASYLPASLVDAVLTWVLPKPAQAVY
Experimental: In Vitro 17bHSD9 Cell Assay
Inhibition of 17bHSD9 was measured in a cell-based assay with over expressed HSD17β9 in HEK293S cells, measuring retinol to retinal conversion by LCMS/MS.
Cells were plated in 384 well plates (GREINER CELL culture plate 384w black/clear Poly-D-Lysine) at 10 K c/w in 30 μl of culture media (DMEM with GLUTAMAX plus 10% FBS). […] After 18 h of cell culturing for 20 μl of media was transferred using BRAVO dispensing robot (AGILENT) to a GREINER PP 384 well plate (781280) and 40 μl of 50% acetonitrile was added. Samples were analyzed using LC-MS/MS.
SCIEX LC-MS/MS system: Sample was injected with CTC analytical injector, SHIMATZU LC pumps LC20 and analysed on the SCIEX API 5000 LCMSMS system with the following settings. Samples were chromatographed on a WATERS, symmetry, C8, 3.5 μm, 2.1×50 mm) column at constant flow rate of 0.5 mL/min. The mobile phases consists of A (water with 0.2% formic acid) and B (acetonitrile with 0.2% formic acid). The LC gradient profile is as follows: 50% B during 0 to 0.1 min, a linear increase to 100% B during 0.1 to 0.8 min, hold at 100% B during 0.8 to 1.5 min then back to 50% B from 1.5 to 1.6 min and hold during run time. The run time was 2 min with retention times of approximately 1.54 and 1.62 min for Retinol and Retinal, respectively. Detection was performed on a API 5000 LC/MS/MS system with a triple quadrupole mass spectrometer, a TURBO V ion source, in multiple reaction monitoring (MRM) mode at positive polarity with ESI probe. The MRM pairs were m/z 269.3 to m/z 93.0 and m/z 285.2 to 161.0. for Retinol and Retinal, respectively. The dwell times were 100 ms for each transition and a depolarization and collision energy of 50 and 25, respectively. Data from MS signals was using area under curve (AUC). Ratio=Retinal/(Retinal+Retinol).
as §2, §3, §4

Chain of recombinant 17bHSD13 (N2-K300) (Q7Z5P4 2-300): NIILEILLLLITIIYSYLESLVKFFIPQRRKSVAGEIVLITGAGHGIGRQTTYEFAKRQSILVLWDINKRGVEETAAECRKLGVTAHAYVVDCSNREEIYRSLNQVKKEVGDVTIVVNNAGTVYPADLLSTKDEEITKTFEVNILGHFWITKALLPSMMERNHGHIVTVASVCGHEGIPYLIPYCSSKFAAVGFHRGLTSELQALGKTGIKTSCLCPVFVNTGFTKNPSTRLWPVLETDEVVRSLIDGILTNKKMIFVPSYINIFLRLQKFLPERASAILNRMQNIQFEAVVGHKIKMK

Row | IC50 [1] [nM] | IC50 [2] [µM] | IC50 [3] [nM] | IC50 [4] [µM] | SMILES
1 | 517 | > 50 | 370 | 7.7 | O=C(c1noc(-c2cc(F)c(F)c(O)c2F)n1)N1CCO[C@H](C(F)(F)F)C1 [Example 46, (S)-(5-(2,4,5-Trifluoro-3-hydroxyphenyl)-1,2,4-oxadiazol-3-yl)(2-(trifluoromethyl)morpholino)methanone]
2 | 388 | > 50 | 1100 | > 50 | CC1(C)COCCN1C(=O)c1noc(-c2cc(F)c(F)c(O)c2F)n1 [Example 48, (3,3-Dimethylmorpholino)(5-(2,4,5-trifluoro-3-hydroxyphenyl)-1,2,4-oxadiazol-3-yl)methanone]
3 | 1670 | > 50 | 540 | > 50 | O=C(c1noc(-c2cc(F)c(F)c(O)c2F)n1)N1CCO[C@@H](CF)C1 [Example 49, (R)-(2-(Fluoromethyl)morpholino)(5-(2,4,5-trifluoro-3-hydroxyphenyl)-1,2,4-oxadiazol-3-yl)methanone]
4 | 1690 | > 50 | 2690 | > 50 | C[C@@H]1CCN(C(=O)c2noc(-c3cc(F)c(F)c(O)c3F)n2)CCO1 [Example 51, (R)-(7-Methyl-1,4-oxazepan-4-yl)(5-(2,4,5-trifluoro-3-hydroxyphenyl)-1,2,4-oxadiazol-3-yl)methanone]
5 | 281 | 34.6 | 480 | 1.2 | O=C(c1noc(-c2cc(F)c(F)c(O)c2F)n1)N1CCOC2(CCC2)C1 [Example 52, (5-Oxa-8-azaspiro[3.5]nonan-8-yl)(5-(2,4,5-trifluoro-3-hydroxyphenyl)-1,2,4-oxadiazol-3-yl)methanone]
6 | 2780 | > 50 | 5610 | > 50 | O=C(c1noc(-c2cc(F)c(F)c(O)c2F)n1)N1CCOC2(CCOCC2)C1 [Example 53, (1,9-Dioxa-4-azaspiro[5.5]undecan-4-yl)(5-(2,4,5-trifluoro-3-hydroxyphenyl)-1,2,4-oxadiazol-3-yl)methanone]
7 | 392 | > 50 | 150 | > 50 | C[C@H]1CN(C(=O)c2noc(-c3cc(F)c(F)c(O)c3F)n2)C[C@H](C)O1 [Example 54, ((2S,6S)-2,6-Dimethylmorpholino)(5-(2,4,5-trifluoro-3-hydroxyphenyl)-1,2,4-oxadiazol-3-yl)methanone]
8 | 46 | 3 | 960 | 15.8 | O=C(c1noc(-c2cc(F)c(F)c(O)c2F)n1)N1CC=C(c2ccccc2)CC1 [Example 62, (4-Phenyl-3,6-dihydropyridin-1(2H)-yl)(5-(2,4,5-trifluoro-3-hydroxyphenyl)-1,2,4-oxadiazol-3-yl)methanone]
9 | 48 | 5.6 | 270 | 11.2 | O=C(c1noc(-c2cc(F)c(F)c(O)c2F)n1)N1CCc2ccccc2C1 [Example 64, (3,4-Dihydroisoquinolin-2(1H)-yl)(5-(2,4,5-trifluoro-3-hydroxyphenyl)-1,2,4-oxadiazol-3-yl)methanone]
10 | 44 | 26.3 | 800 | 30.4 | COc1ccc(OC2CCN(C(=O)c3noc(-c4cc(F)c(F)c(O)c4F)n3)CC2)nc1 [Example 68, (4-((5-Methoxypyridin-2-yl)oxy)piperidin-1-yl)(5-(2,4,5-trifluoro-3-hydroxyphenyl)-1,2,4-oxadiazol-3-yl)methanone]
11 | 62 | 19 | 1120 | > 50 | O=C(c1noc(-c2cc(F)c(F)c(O)c2F)n1)N1CCN(c2nc3ccccc3o2)CC1 [Example 72, (4-(Benzo[d]oxazol-2-yl)piperazin-1-yl)(5-(2,4,5-trifluoro-3-hydroxyphenyl)-1,2,4-oxadiazol-3-yl)methanone]
